Tests used:
C3a receptor = target: T1, C3a receptor (Homo sapiens, UniProt Q16581); assay: Ca2+-flux assay of C3a receptor antagonism in transfected HEK293 cells; format: cell-based; settings: antagonist 10 nM, mouse TLQP-21 1 μM, 15 minutes preincubation, HEK293 with C3a receptor and GNA16 vectors, vs control; FIG. 6
T1 sequence (Q16581 1-482): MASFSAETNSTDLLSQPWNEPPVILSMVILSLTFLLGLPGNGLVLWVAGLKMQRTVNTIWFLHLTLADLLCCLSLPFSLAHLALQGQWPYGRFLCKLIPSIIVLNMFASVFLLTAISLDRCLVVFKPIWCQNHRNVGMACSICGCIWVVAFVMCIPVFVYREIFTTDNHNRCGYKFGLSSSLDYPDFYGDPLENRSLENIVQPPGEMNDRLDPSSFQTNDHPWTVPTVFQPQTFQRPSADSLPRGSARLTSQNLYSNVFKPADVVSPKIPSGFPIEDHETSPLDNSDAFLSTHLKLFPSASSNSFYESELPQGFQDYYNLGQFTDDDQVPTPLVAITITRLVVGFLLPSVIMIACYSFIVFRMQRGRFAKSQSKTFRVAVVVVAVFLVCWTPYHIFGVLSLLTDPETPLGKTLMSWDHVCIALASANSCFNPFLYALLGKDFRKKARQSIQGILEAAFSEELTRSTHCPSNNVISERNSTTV
Description: In the following evaluation, Compound 1 and Compound 2 were dissolved in DMSO and diluted with HBSS as appropriate.
Human Embryonic Kidney cells 293 (HEK293) were used, transfected with the expression vectors necessary for evaluation according to the following.
A transfection solution was prepared by sequentially adding C3a receptor expression vector, GNA16 expression vector, and PEI-MAX (PolyScience) solution to serum-free DMEM medium, mixing well, and then allowing it to stand at room temperature for 20 minutes. […]
The cells for evaluating C3a receptor response described above were seeded in a 96-well Black Polystyrene Microplate (Thermo fisher scientific) precoated with Poly-L-Ornithine Solution (FUJIFILM Wako Pure Chemical). […] After 15 minutes, a mouse TLQP-21 solution was added for C3a receptor stimulation, and the Ca^2+ influx associated with the stimulation was measured over time as intracellular fluorescence intensity (Ex: 494 nm, Em: 525 nm). The value obtained by subtracting the measured value when HBSS was added instead of mouse TLQP-21 solution (blank) was used as the measured value. The C3a receptor antagonist solution and mouse TLQP-21 solution were added after adjusting their concentrations by appropriately diluting them so that their final concentrations when measuring fluorescence intensity were 10 nM and 1 μM, respectively. […]

[1] = tested on: AD model mice (NC/Nga, mite allergen-induced); assay: Amelioration of pruritus in AD model mice (scratching behavior, MicroAct); format: in vivo, mouse; settings: 200 μL subcutaneous, 0.5 mg/mL Compound 1 or 0.05 mg/mL Compound 2, three times a week; measured 3 hours; vs solvent alone; FIG. 7
Description: Seven-week-old female NC/Nga mice were used. Preparation of AD model mice: The back of the neck was shaved, and 100 mg of an ointment containing mite allergen: Biostir AD (Biostir Inc.) was applied to the back of the neck and auricular region under isoflurane anesthesia for initial sensitization. Four days after the first application of the ointment containing mite allergen, 150 μL of 4% (w/v) SDS solution and 100 mg of ointment containing mite allergen were applied to the back of the neck and auricular region under isoflurane anesthesia. Thereafter, the same procedure was performed four times at a frequency of once every 3 to 4 days to induce AD-like dermatitis.
Compound 1 or Compound 2, whose C3a receptor antagonism was confirmed in Example 4 above, was used as a C3a receptor antagonist. Compound 1 or Compound 2 was dissolved in saline containing 20% polyethylene glycol 400, of which 200 μL was administered subcutaneously to the back of the neck. The control group was administered with the same amount of only the above solvent. The concentration of the C3a receptor antagonist solution was set at 0.5 mg/mL for Compound 1 and 0.05 mg/mL for Compound 2. […]
Four days after the last application of the ointment containing mite allergen, the scratching behavior was measured for 3 hours after the last administration of the sample. […]

[2] = tested on: AEW model mice (C57BL/6J); assay: Amelioration of pruritus in AEW model mice (scratching behavior, MicroAct); format: in vivo, mouse; settings: 200 μL subcutaneous, 0.5 mg/mL Compound 1 or 0.05 mg/mL Compound 2, once daily for 8 days; measured 3 hours; vs solvent alone; FIG. 8
Text: The animals used were male C57BL/6J mice.
Preparation of AEW model: The back of the neck was shaved, and absorbent cotton soaked with a 1:1 (v/v) mixture of acetone and diethyl ether was applied and allowed to stand for 15 seconds. Immediately thereafter, absorbent cotton soaked with water was applied for 30 seconds. This treatment was repeated twice/day (morning and evening) for 7 days.
Compound 1 or Compound 2, whose C3a receptor antagonism was confirmed in Example 4 above, was used as a C3a receptor antagonist. Compound 1 or Compound 2 was dissolved in saline containing 20% polyethylene glycol 400, of which 200 μL was administered subcutaneously to the back of the neck. The control group was administered with the same amount of only the above solvent. The concentration of the C3a receptor antagonist solution was set at 0.5 mg/mL for Compound 1 and 0.05 mg/mL for Compound 2. Sample administration started after the first AEW treatment and was performed at a frequency of once daily for 8 days.
Sixteen hours after the last AEW treatment, the scratching behavior was measured for 3 hours after the last administration of the sample. MicroAct (Neuroscience) was used to measure the scratching behavior.

Row | SMILES | Fluorescence intensity due to C3a receptor stimulation by TLQP-21 (integrated over 3 min) (C3a receptor) | Scratching behavior in AD model mice [1] | Scratching behavior in AEW model mice [2]
1 | Cc1cc(C(c2ccc(Cl)cc2)c2ccc(Cl)cc2)sc1C(=O)N[C@@H](CCCNC(=N)N)C(=O)O [Compound 2, L-arginine, N2-[[5-[bis(4-chlorophenyl)methyl]-3-methyl-2-thienyl]carbonyl]] | greatly suppressed | significant decrease in scratching behavior | significant decrease in scratching behavior
2 | N=C(N)NCCC[C@H](NC(=O)c1ccc(C(c2ccccc2)c2ccccc2)s1)C(=O)O [Compound 1, L-arginine, N2-[[5-(diphenylmethyl)-2-thienyl]carbonyl]] | greatly suppressed | significant decrease in scratching behavior | significant decrease in scratching behavior
